Test results: publication doi:10.1101/571604v1 (biorxiv, 2019)

What was measured:
[1] = target: T1, FPR2 (PathHunter eXpress CHO-K1 FPR2 cells) (Homo sapiens, UniProt P25090); experiment: beta-arrestin recruitment, PathHunter enzyme fragment complementation; format: cell-based
T1 sequence (P25090 1-351): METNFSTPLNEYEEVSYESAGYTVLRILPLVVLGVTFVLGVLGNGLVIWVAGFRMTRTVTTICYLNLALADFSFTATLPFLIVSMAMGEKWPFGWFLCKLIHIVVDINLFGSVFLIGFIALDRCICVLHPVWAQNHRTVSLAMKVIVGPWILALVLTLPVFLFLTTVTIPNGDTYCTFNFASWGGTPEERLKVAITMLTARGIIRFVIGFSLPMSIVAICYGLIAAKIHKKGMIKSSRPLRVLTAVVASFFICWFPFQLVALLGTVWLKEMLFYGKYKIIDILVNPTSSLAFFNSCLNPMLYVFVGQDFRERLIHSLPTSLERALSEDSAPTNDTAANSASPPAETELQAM

[2] = target: T2, FPR2 (human blood neutrophils) (Homo sapiens, UniProt P25090); experiment: NADPH-oxidase superoxide release, isoluminol chemiluminescence, peak response; format: cell-based; settings: agonist; naive neutrophils, 37 °C, pH 7.3
T2 sequence (P25090 1-351): T1 sequence (P25090 1-351)

Cc1cccc(-c2oc(C)nc2C(=O)Nc2cnn(Cc3nc(C(C)(F)F)co3)n2)c1 [Act-389949, N-(2-{[4-(1,1-difluoroethyl)-1,3-oxazol-2-yl]methyl}-2H-1,2,3-triazol-4-yl)-2-methyl-5-(3-methylphenyl)-1,3-oxazole-4-carboxamide]
EC50 [1]: ~20 nM
EC50 [2]: ~10 nM
